From the supplement of paper PMC10307832

How the values were obtained:
Test in all cases: relative viability (nuclei count vs DMSO), 5 days (fraction); higher = more cells survive
[1] = compound: CCN(CCO)CCCC(C)Nc1ccnc2cc(Cl)ccc12 [Hydroxychloroquine] + COc1cccc2cc(-c3nc([C@H]4CC[C@H](C(=O)O)CC4)n4ncnc(N)c34)[nH]c12 [OSI-027] (partner 0.5 µM)
In short: (§1)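 Cells from lung cancer lines were seeded into 1536-well plates and, one day later, dosed by pin tool. Treatments were either a single drug or a fixed dose of an anchor drug with five library-drug doses (not always all listed) in √10 steps. After 5 days, nuclei were stained in a one-step fixation (final 0.05% Triton X-100, 1% formaldehyde, 1 ug/ml Hoechst) and counted on 4× images, and relative viability is the treated-to-vehicle nuclei ratio, as the median of duplicate plates.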

[2] = compound: CCN(CCO)CCCC(C)Nc1ccnc2cc(Cl)ccc12 [Hydroxychloroquine] + CS(=O)(=O)CCNCc1ccc(-c2ccc3ncnc(Nc4ccc(OCc5cccc(F)c5)c(Cl)c4)c3c2)o1 [Lapatinib] (partner 2 µM)
In short: as §1

[3] = compound: CCN(CCO)CCCC(C)Nc1ccnc2cc(Cl)ccc12 [Hydroxychloroquine] + C[C@]1(O)C[C@@H](c2nc(-c3ccc4ccc(-c5ccccc5)nc4c3)c3c(N)nccn32)C1 [Linsitinib] (partner 1 µM)
In short: as §1

[4] = compound: CCN(CCO)CCCC(C)Nc1ccnc2cc(Cl)ccc12 [Hydroxychloroquine] + Cc1nc(NC(=O)N2CCC[C@H]2C(N)=O)sc1-c1ccnc(C(C)(C)C(F)(F)F)c1 [Alpelisib] (partner 2 µM)
In short: as §1

Cell Line NCI-H1993 has a relative viability ([1]; first compound 0.5 µM) of 0.546, a relative viability ([1]; first compound 1.581 µM) of 0.563 and a relative viability ([1]; first compound 5 µM) of 0.558. The relative viability ([1]; first compound 15.81 µM) was 0.555, the relative viability ([1]; first compound 50 µM) was 0.541 and the relative viability ([2]; first compound 0.5 µM) was 0.751. It also gave a relative viability ([2]; first compound 1.581 µM) of 0.759, a relative viability ([2]; first compound 5 µM) of 0.899 and a relative viability ([2]; first compound 15.81 µM) of 0.834. For the same cell line, the relative viability ([2]; first compound 50 µM) was 0.839, the relative viability ([3]; first compound 0.5 µM) was 0.707 and the relative viability ([3]; first compound 1.581 µM) was 0.719. For the same cell line, the relative viability ([3]; first compound 5 µM) was 0.683, the relative viability ([3]; first compound 15.81 µM) was 0.718 and the relative viability ([3]; first compound 50 µM) was 0.735. It also gave a relative viability ([4]; first compound 0.5 µM) of 0.632, a relative viability ([4]; first compound 1.581 µM) of 0.712 and a relative viability ([4]; first compound 5 µM) of 0.789. The relative viability ([4]; first compound 15.81 µM) was 0.71 and the relative viability ([4]; first compound 50 µM) was 0.692.

NCI-H2009 gave a relative viability ([1]; first compound 0.5 µM) of 0.632, a relative viability ([1]; first compound 1.581 µM) of 0.616 and a relative viability ([1]; first compound 5 µM) of 0.651. The relative viability ([1]; first compound 15.81 µM) was 0.658, the relative viability ([1]; first compound 50 µM) was 0.644 and the relative viability ([2]; first compound 0.5 µM) was 0.909. It also gave a relative viability ([2]; first compound 1.581 µM) of 0.826, a relative viability ([2]; first compound 5 µM) of 0.874 and a relative viability ([2]; first compound 15.81 µM) of 0.898. It also gave a relative viability ([2]; first compound 50 µM) of 0.893, a relative viability ([3]; first compound 0.5 µM) of 1.2 and a relative viability ([3]; first compound 1.581 µM) of 1.2. The relative viability ([3]; first compound 5 µM) was 1.28, the relative viability ([3]; first compound 15.81 µM) was 1.23 and the relative viability ([3]; first compound 50 µM) was 1.14. It also gave a relative viability ([4]; first compound 0.5 µM) of 1.19, a relative viability ([4]; first compound 1.581 µM) of 1.24 and a relative viability ([4]; first compound 5 µM) of 1.26. It also gave a relative viability ([4]; first compound 15.81 µM) of 1.17 and a relative viability ([4]; first compound 50 µM) of 1.09.

In the case of NCI-H2023, the relative viability ([1]; first compound 0.5 µM) is reported as 0.468, the relative viability ([1]; first compound 1.581 µM) is reported as 0.336 and the relative viability ([1]; first compound 5 µM) is reported as 0.402. For the same cell line, the relative viability ([1]; first compound 15.81 µM) was 0.338, the relative viability ([1]; first compound 50 µM) was 0.442 and the relative viability ([2]; first compound 0.5 µM) was 0.793. It also gave a relative viability ([2]; first compound 1.581 µM) of 0.652, a relative viability ([2]; first compound 5 µM) of 0.691 and a relative viability ([2]; first compound 15.81 µM) of 0.905. For the same cell line, the relative viability ([2]; first compound 50 µM) was 0.994, the relative viability ([3]; first compound 0.5 µM) was 0.618 and the relative viability ([3]; first compound 1.581 µM) was 0.65. For the same cell line, the relative viability ([3]; first compound 5 µM) was 0.697, the relative viability ([3]; first compound 15.81 µM) was 0.643 and the relative viability ([3]; first compound 50 µM) was 0.728. It also gave a relative viability ([4]; first compound 0.5 µM) of 0.547, a relative viability ([4]; first compound 1.581 µM) of 0.47 and a relative viability ([4]; first compound 5 µM) of 0.636. For the same cell line, the relative viability ([4]; first compound 15.81 µM) was 0.605 and the relative viability ([4]; first compound 50 µM) was 0.601.

With NCI-H2085 the relative viability ([1]; first compound 0.5 µM) was 0.788, the relative viability ([1]; first compound 1.581 µM) was 0.557 and the relative viability ([1]; first compound 5 µM) was 0.625. The relative viability ([1]; first compound 15.81 µM) was 0.693, the relative viability ([1]; first compound 50 µM) was 0.821 and the relative viability ([2]; first compound 0.5 µM) was 0.83. The relative viability ([2]; first compound 1.581 µM) was 0.666, the relative viability ([2]; first compound 5 µM) was 0.832 and the relative viability ([2]; first compound 15.81 µM) was 0.742. The relative viability ([2]; first compound 50 µM) was 0.873, the relative viability ([3]; first compound 0.5 µM) was 0.891 and the relative viability ([3]; first compound 1.581 µM) was 0.788. It also gave a relative viability ([3]; first compound 5 µM) of 0.938, a relative viability ([3]; first compound 15.81 µM) of 0.941 and a relative viability ([3]; first compound 50 µM) of 0.883. For the same cell line, the relative viability ([4]; first compound 0.5 µM) was 0.91, the relative viability ([4]; first compound 1.581 µM) was 0.998 and the relative viability ([4]; first compound 5 µM) was 0.973. For the same cell line, the relative viability ([4]; first compound 15.81 µM) was 0.914 and the relative viability ([4]; first compound 50 µM) was 0.917.

In the case of NCI-H2087, the relative viability ([1]; first compound 0.5 µM) is reported as 0.584, the relative viability ([1]; first compound 1.581 µM) is reported as 0.375 and the relative viability ([1]; first compound 5 µM) is reported as 0.529. For the same cell line, the relative viability ([1]; first compound 15.81 µM) was 0.672, the relative viability ([1]; first compound 50 µM) was 0.78 and the relative viability ([2]; first compound 0.5 µM) was 1.11. It also gave a relative viability ([2]; first compound 1.581 µM) of 0.907, a relative viability ([2]; first compound 5 µM) of 0.942 and a relative viability ([2]; first compound 15.81 µM) of 0.946. For the same cell line, the relative viability ([2]; first compound 50 µM) was 1.11, the relative viability ([3]; first compound 0.5 µM) was 1.01 and the relative viability ([3]; first compound 1.581 µM) was 0.887. For the same cell line, the relative viability ([3]; first compound 5 µM) was 0.893, the relative viability ([3]; first compound 15.81 µM) was 0.951 and the relative viability ([3]; first compound 50 µM) was 0.965. The relative viability ([4]; first compound 0.5 µM) was 1.03, the relative viability ([4]; first compound 1.581 µM) was 1.06 and the relative viability ([4]; first compound 5 µM) was 0.87. It also gave a relative viability ([4]; first compound 15.81 µM) of 1.08 and a relative viability ([4]; first compound 50 µM) of 1.02.

NCI-H2126 showed a relative viability ([1]; first compound 0.5 µM) of 0.625, a relative viability ([1]; first compound 1.581 µM) of 0.631 and a relative viability ([1]; first compound 5 µM) of 0.763. The relative viability ([1]; first compound 15.81 µM) was 0.606, the relative viability ([1]; first compound 50 µM) was 0.702 and the relative viability ([2]; first compound 0.5 µM) was 0.74. It also gave a relative viability ([2]; first compound 1.581 µM) of 0.649, a relative viability ([2]; first compound 5 µM) of 0.761 and a relative viability ([2]; first compound 15.81 µM) of 0.797. It also gave a relative viability ([2]; first compound 50 µM) of 0.816, a relative viability ([3]; first compound 0.5 µM) of 0.694 and a relative viability ([3]; first compound 1.581 µM) of 0.634. The relative viability ([3]; first compound 5 µM) was 0.681, the relative viability ([3]; first compound 15.81 µM) was 0.649 and the relative viability ([3]; first compound 50 µM) was 0.747. The relative viability ([4]; first compound 0.5 µM) was 0.727, the relative viability ([4]; first compound 1.581 µM) was 0.738 and the relative viability ([4]; first compound 5 µM) was 0.73. For the same cell line, the relative viability ([4]; first compound 15.81 µM) was 0.775 and the relative viability ([4]; first compound 50 µM) was 0.794.

In the case of NCI-H2228, the relative viability ([1]; first compound 0.5 µM) is reported as 0.617, the relative viability ([1]; first compound 1.581 µM) is reported as 0.569 and the relative viability ([1]; first compound 5 µM) is reported as 0.634. For the same cell line, the relative viability ([1]; first compound 15.81 µM) was 0.548, the relative viability ([1]; first compound 50 µM) was 0.669 and the relative viability ([2]; first compound 0.5 µM) was 1.05. The relative viability ([2]; first compound 1.581 µM) was 0.999, the relative viability ([2]; first compound 5 µM) was 0.972 and the relative viability ([2]; first compound 15.81 µM) was 0.705. It also gave a relative viability ([2]; first compound 50 µM) of 1.18, a relative viability ([3]; first compound 0.5 µM) of 0.958 and a relative viability ([3]; first compound 1.581 µM) of 0.647. The relative viability ([3]; first compound 5 µM) was 0.706, the relative viability ([3]; first compound 15.81 µM) was 0.632 and the relative viability ([3]; first compound 50 µM) was 0.703. For the same cell line, the relative viability ([4]; first compound 0.5 µM) was 0.705, the relative viability ([4]; first compound 1.581 µM) was 0.546 and the relative viability ([4]; first compound 5 µM) was 0.682. It also gave a relative viability ([4]; first compound 15.81 µM) of 0.549 and a relative viability ([4]; first compound 50 µM) of 0.735.

With NCI-H2347 the relative viability ([1]; first compound 0.5 µM) was 0.528, the relative viability ([1]; first compound 1.581 µM) was 0.356 and the relative viability ([1]; first compound 5 µM) was 0.387. For the same cell line, the relative viability ([1]; first compound 15.81 µM) was 0.322, the relative viability ([1]; first compound 50 µM) was 0.336 and the relative viability ([2]; first compound 0.5 µM) was 0.882. For the same cell line, the relative viability ([2]; first compound 1.581 µM) was 0.842, the relative viability ([2]; first compound 5 µM) was 1.09 and the relative viability ([2]; first compound 15.81 µM) was 0.922. The relative viability ([2]; first compound 50 µM) was 0.958, the relative viability ([3]; first compound 0.5 µM) was 1.05 and the relative viability ([3]; first compound 1.581 µM) was 0.84. For the same cell line, the relative viability ([3]; first compound 5 µM) was 0.932, the relative viability ([3]; first compound 15.81 µM) was 0.994 and the relative viability ([3]; first compound 50 µM) was 0.895. For the same cell line, the relative viability ([4]; first compound 0.5 µM) was 1.06, the relative viability ([4]; first compound 1.581 µM) was 0.904 and the relative viability ([4]; first compound 5 µM) was 1.02. It also gave a relative viability ([4]; first compound 15.81 µM) of 1.11 and a relative viability ([4]; first compound 50 µM) of 0.956.
